Laboratory results: PMC4854934, “Rapid Screening of Antimicrobial Synthetic Peptides” (International Journal of Peptide Research and Therapeutics, 2015)
Values after ≈ are worked out from the molar mass of the structure shown. “Also recorded” adds a separate entry of the source. Counter-ions that a name gives are not always drawn. Like-named read-outs stand apart in the source and are kept apart here. Where a SMILES comes first, the peptide text is derived from it. Bridges are numbered along the chain shown (N, C = ends). Roman numbers before positions name the chains, in order. Where no end group is shown, it is not given here. The star is where a group is joined. Myristoyl = CCCCCCCCCCCCCC(=O)*; Lauroyl = CCCCCCCCCCCC(=O)*

Assays:
Assay type in all cases: cell-based
[1] = test system: all the tested species of bacteria and fungi; assay: Broth microdilution, summary over all strains; settings: summary of Tables 1, 2
Description: (§1) Minimum inhibitory concentration (MIC) was determined by broth microdilution method on 96-well polypropylene plates, according to Clinical and Laboratory Standards Institute (CLSI) recommendations. All tests were conducted in triplicate and involved six reference strains of the following bacteria: Bacillus subtilis ATCC 6633, Escherichia coli ATCC 25922, Klebsiella pneumoniae ATCC 200603, Pseudomonas aeruginosa ATCC 9027, Staphylococcus aureus ATCC 25923, Staphylococcus epidermidis ATCC 14490 and two reference strains of fungi: Candida albicans ATCC 10231 and Candida tropicalis PCM 2681. Concentrations of applied peptides ranged from 512 to 1 µg/mL. Two microbiological media were used: Mueller–Hinton Broth for bacteria and Sabouraud Dextrose Broth for fungi. Incubation took 18 h at 37 °C and 48 h at 27 °C respectively. MIC was taken as the lowest concentration of a peptide where the visible growth of microbes was inhibited.

[2] = test system: Bacillus subtilis ATCC 6633
Description: as §1

[3] = test system: Staphylococcus aureus ATCC 25923
Description: as §1

[4] = test system: Staphylococcus epidermidis ATCC 14490
Description: as §1

[5] = test system: Escherichia coli ATCC 25922
Description: as §1

[6] = test system: Pseudomonas aeruginosa ATCC 9027
Description: as §1

[7] = test system: Klebsiella pneumoniae ATCC 200603
Description: as §1

[8] = test system: Candida tropicalis PCM 2681
Description: as §1

[9] = test system: Candida albicans ATCC 10231
Description: as §1

[10] = test system: all microorganisms tested; assay: TLC direct bioautography (TLC-DB) with resazurin; settings: crude peptide, bacteria 37 °C 5 h, fungi 27 °C 7 h, resazurin 4 mg/mL (0.1 % Triton X-100); for TLC-DB with separation: zones after resazurin: 4 µL of 5 mg/mL, n-butanol/acetone/acetic acid/5 % ammonia/water 4.5:1.5:1:1:2; for TLC-DB without separation: appearance of spot after resazurin: 10 µL of 5 mg/mL applied directly on TLC plate, no development
Description: Direct bioautography assays to choose the most suitable and efficient stationary phase were performed on the following TLC plates: TLC Silica gel 60 RP-18 F254S (Merck), HPTLC-Platten Nano-SIL 20 UV254 (Macherey–Nagel), HPTLC Nano-ADAMANT UV254 (Macherey–Nagel) and TLC Aluminium oxide 60 F254 (Merck). The plates were sealed separately and autoclaved at 121 °C for 15 min. Peptide samples were dissolved in the solution of methanol and distilled water (75:25). 4 μL of each sample (5 mg/mL) was applied on the TLC plate. Separation was performed using a mobile phase consisting of n-butanol, acetone, acetic acid, 5 % ammonia and distilled water (4.5:1.5:1:1:2 v/v/v/v/v). Moreover, samples without separation were also investigated. In this case 10 µL of each sample was applied directly on the TLC plate and dried. All processes were performed under sterile conditions in the laminar flow cabinet. Microbiological assays were conducted using fivefold dilution of overnight culture of bacteria and a 48-h culture of fungi. After evaporation of eluents, TLC plates were sterilized under UV for 15 min and dipped into previously prepared inoculums of microorganisms for 20 s. Subsequently they were placed in a sterile Petri dish and incubated—bacteria at 37 °C for 5 h and fungi at 27 °C for 7 h. To visualize the growth inhibition zones, the plates were sprayed with 4 mg/mL (0.1 % Triton X-100) of a cell viability reagent, resazurin salt solution (Sigma-Aldrich).
To determine the usefulness of the TLC layer material, preliminary separation experiments were carried out. […] RP-18 layer’s stability was affected by TLC-bioautography procedures, resulting in material disruption. On the other hand, aluminum oxide layer was stable enough, however it gave low quality separation. Therefore, Nano-Sil and Nano-ADAMANT layers were chosen as the most suitable for TLC-DB of synthetic antimicrobial peptides. Mobile phase consisting of n-butanol, acetone, acetic acid, 5 % ammonia and distilled water (4.5:1.5:1:1:2 v/v/v/v/v) provided the best separation of tested compounds. Moreover, the influence of TFA content among crude peptides was also investigated. In this case all tested compounds were lyophilized from 0.1 mM HCl for three times before application on TLC plate in order to exchange the TFA to chloride counter ion. Nevertheless, the obtained results were the same. Assays with (Fig. 1) and without separation (Fig. 2) were performed simultaneously. Growing microorganisms that adhered to the surface of the TLC plate reduced the dye to pink resorufin. […] The Rf values of non-viable cell area were the same for purified compounds.

[11] = broth microdilution, 96-well polypropylene plates, Mueller-Hinton Broth, 18 h at 37 °C, peptide 512 to 1 µg/mL, triplicate, visible growth
[12] = broth microdilution, 96-well polypropylene plates, Sabouraud Dextrose Broth, 48 h at 27 °C, peptide 512 to 1 µg/mL, triplicate, visible growth

Compound	antimicrobial activity among all the tested species of bacteria and fungi [1]	MIC against B. subtilis ATCC 6633 ([2]; ATCC 6633, 18 h)	MIC against S. aureus ATCC 25923 ([3]; ATCC 25923, 18 h)	MIC against S. epidermidis ATCC 14490 ([4]; ATCC 14490, 18 h)	MIC against E. coli ATCC 25922 ([5]; ATCC 25922, 18 h)	MIC against P. aeruginosa ATCC 9027 ([6]; ATCC 9027, 18 h)	MIC against K. pneumoniae ATCC 200603 ([7]; ATCC 200603, 18 h)	MIC against C. tropicalis PCM 2681 ([8]; PCM 2681, 48 h)	MIC against C. albicans ATCC 10231 ([9]; ATCC 10231, 48 h)	TLC-DB with separation: zones after resazurin [10]	TLC-DB without separation: appearance of spot after resazurin [10]	MIC against B. subtilis ATCC 6633 [2, 11]	MIC against S. aureus ATCC 25923 [3, 11]	MIC against S. epidermidis ATCC 14490 [4, 11]	MIC against E. coli ATCC 25922 [5, 11]	MIC against P. aeruginosa ATCC 9027 [6, 11]	MIC against K. pneumoniae ATCC 200603 [7, 11]	MIC against C. tropicalis PCM 2681 [8, 12]	MIC against C. albicans ATCC 10231 [9, 12]
CCCCCCCCCCCCCCCC(=O)N[C@@H](CCCCNC(=O)C(F)(F)F)C(=O)N[C@@H](CCCCNC(=O)C(F)(F)F)C(N)=O [Pal-K(TFA)K(TFA)-NH2]	no antimicrobial activity	>512 µg/mL	>512 µg/mL	>512 µg/mL	>512 µg/mL	>512 µg/mL	>512 µg/mL	>512 µg/mL	>512 µg/mL	–	–	–	–	–	–	–	–	–	–
CC[C@H](C)[C@H](N)C(=O)N[C@@H](CS)C(=O)N[C@@H](Cc1c[nH]cn1)C(=O)N[C@@H](Cc1c[nH]cn1)C(=O)N[C@@H](CS)C(=O)N[C@H](C(=O)O)[C@@H](C)CC [ICHHCI-OH] (H-ICHHCI-OH; N-terminus assumed)	no antimicrobial activity	–	–	–	–	–	–	–	–	white reduction zone; also recorded: white inhibition zone	soft white inhibition zone	>512 µg/mL	>512 µg/mL	>512 µg/mL	>512 µg/mL	>512 µg/mL	>512 µg/mL	>512 µg/mL	>512 µg/mL
CCCCCCCCCCCCCC(=O)N[C@@H](CCCCN)C(=O)NCC(=O)N[C@@H](CCCCN)C(N)=O [Mir-KGK-NH2] (Myristoyl-Lys-Gly-Lys-NH2)	–	2 µg/mL (≈ 3.7 µM)	16 µg/mL (≈ 29.6 µM)	4 µg/mL (≈ 7.4 µM)	64 µg/mL (≈ 118 µM)	>512 µg/mL	128 µg/mL (≈ 237 µM)	256 µg/mL (≈ 473 µM)	128 µg/mL (≈ 237 µM)	–	did not reduce resazurin	–	–	–	–	–	–	–	–
QQRFEWEFEQQ-NH2 [p11]	–	–	–	–	–	–	–	–	–	–	–	>512 µg/mL	>512 µg/mL	>512 µg/mL	>512 µg/mL	>512 µg/mL	>512 µg/mL	>512 µg/mL	>512 µg/mL
CCCCCCCCCCCC(=O)N[C@@H](CSSC[C@H](NC(=O)CCCCCCCCCCC)C(=O)N[C@@H](CCCCN)C(=O)N[C@@H](CCCCN)C(N)=O)C(=O)N[C@@H](CCCCN)C(=O)N[C@@H](CCCCN)C(N)=O [Laur-CKK-NH2 dimer] (I: Lauroyl-Cys-Lys-Lys-NH2 / II: Lauroyl-Cys-Lys-Lys-NH2; disulfide I:1-II:1)	–	2 µg/mL (≈ 1.79 µM)	8 µg/mL (≈ 7.17 µM)	2 µg/mL (≈ 1.79 µM)	8 µg/mL (≈ 7.17 µM)	512 µg/mL (≈ 459 µM)	8 µg/mL (≈ 7.17 µM)	>512 µg/mL	512 µg/mL (≈ 459 µM)	two blue spots; also recorded: two inhibition zones	did not reduce resazurin	–	–	–	–	–	–	–	–
